Experimental data: US10703764B2, “Benzopiperazine compositions as BET bromodomain inhibitors” (FORMA Therapeutics, Inc., priority 2013, dated 2020)

Experiments:
BRD4 BD1 = biological target: T1, BRD4 BD1 (Homo sapiens, UniProt O60885); assay: AlphaScreen binding assay, BRD4 Bromodomain 1
T1 construct: made in house
Outline: (§1)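 An AlphaScreen competition format was used with His-BRD4 BD1 or BD2 and biotin-H4 K5/8/12/16-acetyl peptide, each at matched final levels of 50 nM (BD1) or 100 nM (BD2). Incubation in HEPES/NaCl buffer with 0.1% BSA and 0.01% Triton X-100 ran ≥1 h before IC50 determination.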

BRD4 BD2 = biological target: T2, BRD4 BD2 (Homo sapiens, UniProt O60885); assay: AlphaScreen binding assay, BRD4 Bromodomain 2
T2 construct: made in house
Outline: as §1

COC(=O)N1c2ccc(-c3cnn(CC(C)(C)O)c3)cc2N(C(=O)Oc2ccccn2)C[C@@H]1C [Example I-1321]
IC50 (BRD4 BD1): 1000 to 10000 nM | IC50 (BRD4 BD2): 50 to 500 nM

CC(=O)N1c2ccccc2N(C(=O)CCN2CCCCCC2=O)C[C@@H]1C [Example I-765]
IC50 (BRD4 BD1): > 10000 nM | IC50 (BRD4 BD2): > 500 nM

CC(=O)N1c2ccccc2N(Cc2ccc(N(C)C)cc2)C[C@@H]1C [Example I-891]
IC50 (BRD4 BD1): > 10000 nM | IC50 (BRD4 BD2): > 500 nM

CC(=O)N1c2ccc(-c3cnn(CCS(C)(=O)=O)c3)cc2N(C(=O)Oc2ccc(F)cc2)C[C@@H]1C [Example I-1017]
IC50 (BRD4 BD1): 1000 to 10000 nM | IC50 (BRD4 BD2): > 500 nM

CC(=O)N1c2ccc(-c3cnn(C4COC4)c3)cc2N(C(=O)C2CCOCC2)C[C@@H]1C [Example I-110, (S)-1-(2-methyl-6-(1-(oxetan-3-yl)-1H-pyrazol-4-yl)-4-(tetrahydro-2H-pyran-4-carbonyl)-3,4-dihydroquinoxalin-1(2H)-yl)ethanone]
IC50 (BRD4 BD1): > 10000 nM | IC50 (BRD4 BD2): > 500 nM

CC(=O)N1c2ccccc2N(C(=O)c2ccc(F)cn2)C[C@@H]1C [Example I-763]
IC50 (BRD4 BD1): > 10000 nM | IC50 (BRD4 BD2): > 500 nM

COc1cc(OC(=O)N2C[C@H](C)N(C(C)=O)c3ccc(-c4cnn(C5CC5)c4)cc32)c(Cl)cn1 [Example I-1209]
IC50 (BRD4 BD1): 1000 to 10000 nM | IC50 (BRD4 BD2): 50 to 500 nM

CC(C)OC(=O)N1C[C@H](C)N(C(=O)C2CC2)c2ccc(-c3cnn(CC(=O)O)c3)cc21 [Example I-340]
IC50 (BRD4 BD1): 1000 to 10000 nM | IC50 (BRD4 BD2): > 500 nM

C[C@H]1CN(C(=O)C2CC2)c2cc(-c3cnc(N)cn3)ccc2N1C(=O)C1CC1 [Example I-442]
IC50 (BRD4 BD1): 1000 to 10000 nM | IC50 (BRD4 BD2): 50 to 500 nM

COc1cc(C(=O)N2C[C@H](C)N(C(C)=O)c3ccccc32)nc2ccccc12 [Example I-753]
IC50 (BRD4 BD1): > 10000 nM | IC50 (BRD4 BD2): > 500 nM

CC(=O)N1c2ccc(-c3ccc(S(C)(=O)=O)cc3)cc2N(C(=O)c2oc3ccccc3c2-c2ccccc2)C[C@@H]1C [Example I-790]
IC50 (BRD4 BD1): > 10000 nM | IC50 (BRD4 BD2): > 500 nM

C[C@H]1CN(C(=O)c2ccco2)c2cc(-c3ccc(S(C)(=O)=O)cc3)ccc2N1C(=O)c1ccno1 [Example I-375]
IC50 (BRD4 BD1): > 10000 nM | IC50 (BRD4 BD2): > 500 nM

CC(=O)N1c2ccc(-c3cnn(C4CC4)c3)cc2N(C(=O)Oc2cccnc2C)C[C@@H]1C [Example I-514]
IC50 (BRD4 BD1): 1000 to 10000 nM | IC50 (BRD4 BD2): 50 to 500 nM

CC(=O)N1c2ccccc2N(Cc2nccs2)C[C@@H]1C [Example I-915]
IC50 (BRD4 BD1): > 10000 nM | IC50 (BRD4 BD2): > 500 nM

CC(=O)N1C[C@H](C)N(C(C)=O)c2ccc(-c3ccc(S(C)(=O)=O)cc3)cc21 [Example I-241]
IC50 (BRD4 BD1): 1000 to 10000 nM | IC50 (BRD4 BD2): 50 to 500 nM

COc1ccc(S(=O)(=O)N2C[C@H](C)N(C(C)=O)c3ccccc32)c(OC)c1 [Example I-950]
IC50 (BRD4 BD1): > 10000 nM | IC50 (BRD4 BD2): > 500 nM

CC(=O)N1c2ccc(-c3ccc(S(C)(=O)=O)cc3)cc2N(C(=O)OCc2ccccc2)C[C@@H]1C [Example I-230]
IC50 (BRD4 BD1): > 10000 nM | IC50 (BRD4 BD2): > 500 nM

COC(=O)N1c2ccc(-c3ccc(N(C)S(C)(=O)=O)cc3)cc2N(C(=O)Oc2ccccn2)C[C@@H]1C [Example I-1331]
IC50 (BRD4 BD1): 1000 to 10000 nM | IC50 (BRD4 BD2): 50 to 500 nM

CC(=O)N1c2ccccc2N(C(=O)CN2CCS(=O)(=O)CC2)C[C@@H]1C [Example I-767]
IC50 (BRD4 BD1): > 10000 nM | IC50 (BRD4 BD2): > 500 nM

CC(=O)N1c2ccccc2N(C(=O)c2cccc3[nH]ccc23)CC1C (stereo not drawn) [Example I-770]
IC50 (BRD4 BD1): > 10000 nM | IC50 (BRD4 BD2): > 500 nM

CC(=O)N1c2ccccc2N(S(=O)(=O)c2cccc(Cl)c2)C[C@@H]1C [Example I-946]
IC50 (BRD4 BD1): > 10000 nM | IC50 (BRD4 BD2): > 500 nM

CC(=O)N1c2ccc(-c3ccc(C#N)cn3)cc2N(C(=O)c2ccco2)C[C@@H]1C [Example I-392]
IC50 (BRD4 BD1): 1000 to 10000 nM | IC50 (BRD4 BD2): 50 to 500 nM

COC(=O)N1c2ccc(-c3ccc(S(C)(=O)=O)cc3)cc2N(C(=O)Oc2ccccn2)C[C@@H]1C [Example I-1315]
IC50 (BRD4 BD1): 1000 to 10000 nM | IC50 (BRD4 BD2): 50 to 500 nM

COc1cccc(NC(=O)N2C[C@H](C)N(C(C)=O)c3ccc(-c4ccc(S(C)(=O)=O)cc4)cc32)c1 [Example I-967]
IC50 (BRD4 BD1): > 10000 nM | IC50 (BRD4 BD2): 50 to 500 nM

CC(=O)N1c2ccc(-c3cnn(Cc4ccncc4)c3)cc2N(C(=O)C2CC2)C[C@@H]1C [Example I-118, (S)-1-(4-(cyclopropanecarbonyl)-2-methyl-6-(1-(pyridin-4-ylmethyl)-1H-pyrazol-4-yl)-3,4-dihydroquinoxalin-1(2H)-yl)ethanone]
IC50 (BRD4 BD1): 1000 to 10000 nM | IC50 (BRD4 BD2): 50 to 500 nM

CC(=O)N1c2ccc(-c3ccc(C(F)(F)F)nc3)cc2N(C(=O)c2ccco2)C[C@@H]1C [Example I-837]
IC50 (BRD4 BD1): 1000 to 10000 nM | IC50 (BRD4 BD2): 50 to 500 nM

CC(=O)N1c2ccc(-c3cccnc3)cc2N(C(=O)c2ccco2)C[C@@H]1C [Example I-819]
IC50 (BRD4 BD1): 1000 to 10000 nM | IC50 (BRD4 BD2): 50 to 500 nM

COC(=O)N1c2ccc(-c3cnn(CCO)c3)cc2N(C(=O)Oc2ccc(F)cc2)C[C@@H]1C [Example I-1022]
IC50 (BRD4 BD1): 1000 to 10000 nM | IC50 (BRD4 BD2): 50 to 500 nM

CCNC(=O)N1C[C@H](C)N(C(C)=O)c2ccc(-c3ccc(S(C)(=O)=O)cc3)cc21 [Example I-965]
IC50 (BRD4 BD1): > 10000 nM | IC50 (BRD4 BD2): > 500 nM

CC(=O)N1c2ccc(-c3cnn(C4CC4)c3)nc2N(C(=O)OC(C)C)C[C@@H]1C [Example I-255]
IC50 (BRD4 BD1): 1000 to 10000 nM | IC50 (BRD4 BD2): 50 to 500 nM
